Test results reported in US4100346A, “Certain 7(o-amino-methyl- or methylaminomethylphenyl- or cyclohexadienyl- or thienylacetamide)-3[1-carboxymethyl-(or ethyl- or propyl-)-tetrazol-5-ylthiomethyl]-3-cephem-4-carboxylic acids” (Bristol-Myers Company, priority 1976, dated 1978).
In brackets after ≈: the same amount, converted by molar mass. Where two headings read alike, the source gives them in different places.

How the values were obtained:
in vitro = in vitro ADME, human; details: In 95% human serum; read-out: protein bound (converted)
Staphylococcus aureus [1] = test: Intramuscular treatment of systemically infected mice; type: in vivo; details: im, read-out: PD50 /treatment
Streptococcus pyogenes = test: as above; type: in vivo; details: im, 3.5 h, read-out: PD50 /treatment
Streptococcus pneumoniae = test: as above; type: in vivo; details: im, 3.5 h, read-out: PD50 /treatment
Neisseria gonorrhoeae = test: Growth inhibitory activity, antibiotic dilution technique
Listeria monocytogenes = test: as above; details: read-out: Minimum inhibitory concentration
Providencia stuartii = test: Intramuscular treatment of systemically infected mice; type: in vivo; details: im, 3.5 h, read-out: PD50 /treatment
Proteus vulgaris = test: as above; type: in vivo; details: im, 3.5 h, read-out: PD50 /treatment
Klebsiella pneumoniae = test: as above; type: in vivo; details: im, 3.5 h, read-out: PD50 /treatment
Proteus morganii = test: as above; type: in vivo; details: Morganella morganii, im, 3.5 h, read-out: PD50 /treatment
Escherichia coli [2] = test: as above; type: in vivo; details: im, 3.5 h, read-out: PD50 /treatment
Vibrio cholerae = test: Growth inhibitory activity, antibiotic dilution technique; details: read-out: Minimum inhibitory concentration
Haemophilus influenzae = test: as above; details: including 9 ampicillin-resistant strains
Pasteurella multocida = test: as above; details: read-out: Minimum inhibitory concentration
Bacteroides Fragilis = test: Growth inhibitory activity, antibiotic dilution technique (obligate anaerobes); type: cell-based; details: 3 strains, geometric mean when applicable, read-out: Minimum inhibitory concentration
Protocol: Antibiotic spectrum. […] Procedures were as follows:
c. Obligate anaerobes. The assay was performed on solid medium, consisting of Brain Heart Infusion Broth (BBL) supplemented with 5% defibrinated sheep blood and 1% Ionagar (Colab). […] The plates were incubated at 37° C. for 48 hours under the oxygen-free conditions attained with a Gas-Pak (BBL) Brewer jar system.

Erwinia sp. = test: Growth inhibitory activity, antibiotic dilution technique; details: read-out: Minimum inhibitory concentration
Staphylococcus Aureus [3] = test: Effect of inoculum size on susceptibility of Staphylococcus aureus; type: cell-based; details: for MICB /MICA: MIC at 10^6 over MIC at 10^2 organisms; for MIC: Staphylococcus aureus, read-out: Minimum inhibitory concentration
Enterobacter cloacae = test: Effect of inoculum size on susceptibility of Enterobacteriaceae
Escherichia coli [4] = test: as above
[5] = Antibiotic concentration in blood after intramuscular injection; details: mouse, im

NCc1ccccc1CC(=O)N[C@@H]1C(=O)N2C(C(=O)O)=C(CSc3nnnn3CC(=O)O)CS[C@H]12 [Example 1]
fraction unbound (in vitro): 0.33
ED50 (Staphylococcus aureus [1]; 3.5 h, Staphylococcus aureus strain 1, challenge 2 × 10^5 - 3 × 10^5, treated 1 and 3.5 hours after infection): 0.3 mg/kg
ED50 (Staphylococcus aureus [1]; Staphylococcus aureus strain 2 (penicillinase-producing), challenge 1 × 10^9, treated 0 and 2 hours after infection): 5.4 mg/kg
ED50 (Staphylococcus aureus [1]; Staphylococcus aureus strain 3 (penicillinase-producing), challenge 5 × 10^8 - 7 × 10^9, treated 0 and 2 hours after infection): 10 mg/kg
ED50 (Streptococcus pyogenes; Streptococcus pyogenes strain 1, challenge 2 × 10^3 -6 × 10^3, treated 1 and 3.5 hours after infection): 2.9 mg/kg
ED50 (Streptococcus pyogenes; Streptococcus pyogenes strain 2, challenge 1 × 10^4 - 5 × 10^4, treated 1 and 3.5 hours after infection): 0.93 mg/kg
ED50 (Streptococcus pneumoniae; Streptococcus pneumoniae strain 1, challenge 2 × 10^3 - 9 × 10^3, treated 1 and 3.5 hours after infection): 0.52 mg/kg
ED50 (Streptococcus pneumoniae; Streptococcus pneumoniae strain 2, challenge 1 × 10^4 - 3 × 10^4, treated 1 and 3.5 hours after infection): 1.6 mg/kg
susceptibility of Neisseria gonorrhoeae (Neisseria gonorrhoeae): equally susceptible
MIC (Listeria monocytogenes): 10.8 mg/L (≈ 20.8 µM)
ED50 (Providencia stuartii; Providencia stuartii strain 2, challenge 1×10^6 ×5×10^6, treated 1 and 3.5 hours after infection): 5.9 mg/kg
ED50 (Providencia stuartii; Providencia stuartii strain 3, challenge 2×10^7, treated 1 and 3.5 hours after infection): 8 mg/kg
ED50 (Proteus vulgaris; Proteus vulgaris strain 1, challenge 1×10^6 -2×10^6, treated 1 and 3.5 hours after infection): 1.8 mg/kg
ED50 (Proteus vulgaris; Proteus vulgaris strain 3, challenge 4×10^5, treated 1 and 3.5 hours after infection): 2.5 mg/kg
ED50 (Klebsiella pneumoniae; Klebsiella pneumoniae strain 1, challenge 4×10^4 -5×10^4, treated 1 and 3.5 hours after infection): 2 mg/kg
ED50 (Klebsiella pneumoniae; Klebsiella pneumoniae strain 7, challenge 9×10^2 -1×10^3, treated 1 and 3.5 hours after infection): 22 mg/kg
ED50 (Proteus morganii; Proteus morganii strain 1, challenge 1×10^5 -4×10^5, treated 1 and 3.5 hours after infection): 19 mg/kg
ED50 (Proteus morganii; Proteus morganii strain 2, challenge 2×10^6 -3×10^6, treated 1 and 3.5 hours after infection): 39 mg/kg
ED50 (Escherichia coli [2]; Escherichia coli strain 1, challenge 2×10^5 organisms, treated 1 and 3.5 hours after infection): 0.37 mg/kg
ED50 (Escherichia coli [2]; Escherichia coli strain 8, challenge 6×10^5 -4×10^6, treated 1 and 3.5 hours after infection): 1.5 mg/kg
ED50 (Escherichia coli [2]; Escherichia coli strain 9, challenge 7×10^3 -2×10^4, treated 1 and 3.5 hours after infection): 2.2 mg/kg
MIC (Vibrio cholerae): 4 mg/L (≈ 7.7 µM)
relative activity against Haemophilus influenzae (Haemophilus influenzae): about equally active
MIC (Pasteurella multocida): 0.25 mg/L (≈ 0.481 µM)
MIC (Bacteroides Fragilis): 100 mg/L (≈ 192 µM)
MIC (Erwinia sp.): 0.66 mg/L (≈ 1.27 µM)
MICB /MICA (Staphylococcus Aureus [3]; Lacking penicillinase, 3 strains): 1.6
MICB /MICA (Staphylococcus Aureus [3]; Penicillinase producer, 26 strains): 1.5
MIC (Staphylococcus Aureus [3]; Lacking penicillinase, 3 strains, B, inoculum of 10^6 organisms, geometric means): 2.5 mg/L (≈ 4.81 µM)
MIC (Staphylococcus Aureus [3]; Penicillinase producer, 26 strains, A, Inoculum of 10^2 organisms, geometric means): 3.8 mg/L (≈ 7.31 µM)
MIC (Staphylococcus Aureus [3]; Penicillinase producer, 26 strains, B, inoculum of 10^6 organisms, geometric means): 5.7 mg/L (≈ 11 µM)
MIC (Staphylococcus Aureus [3]): 1.6 mg/L (≈ 3.08 µM)
effect of cell concentration on growth inhibitory activity (Staphylococcus Aureus [3]; penicillinase-producing strains): slightly
MIC (Enterobacter cloacae; read-out: Minimum Inhibitory Concentration, Enterobacter cloacae strain 1, A, Inoculum of 10^2 organisms): 1 mg/L (≈ 1.92 µM)
MIC (Enterobacter cloacae; read-out: Minimum Inhibitory Concentration, Enterobacter cloacae strain 1, B, Inoculum of 10^6 organisms): > 250 mg/L
MIC (Enterobacter cloacae; read-out: Minimum Inhibitory Concentration, Enterobacter cloacae strain 2, A, Inoculum of 10^2 organisms): 1 mg/L (≈ 1.92 µM)
MIC (Enterobacter cloacae; read-out: Minimum Inhibitory Concentration, Enterobacter cloacae strain 2, B, Inoculum of 10^6 organisms): > 250 mg/L
MIC (Enterobacter cloacae; read-out: Minimum Inhibitory Concentration, Enterobacter cloacae strain 3, A, Inoculum of 10^2 organisms): 2 mg/L (≈ 3.85 µM)
MIC (Enterobacter cloacae; read-out: Minimum Inhibitory Concentration, Enterobacter cloacae strain 3, B, Inoculum of 10^6 organisms): > 250 mg/L
MIC (Enterobacter cloacae; read-out: Minimum Inhibitory Concentration, Enterobacter cloacae strain 4, A, Inoculum of 10^2 organisms): 2 mg/L (≈ 3.85 µM)
MIC (Enterobacter cloacae; read-out: Minimum Inhibitory Concentration, Enterobacter cloacae strain 4, B, Inoculum of 10^6 organisms): > 250 mg/L
MIC (Enterobacter cloacae; read-out: Minimum Inhibitory Concentration, Enterobacter cloacae strain 5, A, Inoculum of 10^2 organisms): 8 mg/L (≈ 15.4 µM)
MIC (Enterobacter cloacae; read-out: Minimum Inhibitory Concentration, Enterobacter cloacae strain 5, B, Inoculum of 10^6 organisms): 250 mg/L (≈ 481 µM)
MIC (Escherichia coli [4]; read-out: Minimum Inhibitory Concentration, Escherichia coli strain 1, A, Inoculum of 10^2 organisms): 0.5 mg/L (≈ 0.962 µM)
MIC (Escherichia coli [4]; read-out: Minimum Inhibitory Concentration, Escherichia coli strain 1, B, Inoculum of 10^6 organisms): 2 mg/L (≈ 3.85 µM)
MIC (Escherichia coli [4]; read-out: Minimum Inhibitory Concentration, Escherichia coli strain 2, A, Inoculum of 10^2 organisms): 4 mg/L (≈ 7.7 µM)
MIC (Escherichia coli [4]; read-out: Minimum Inhibitory Concentration, Escherichia coli strain 2, B, Inoculum of 10^6 organisms): 32 mg/L (≈ 61.6 µM)
MIC (Escherichia coli [4]; read-out: Minimum Inhibitory Concentration, Escherichia coli strain 3, A, Inoculum of 10^2 organisms): 0.25 mg/L (≈ 0.481 µM)
MIC (Escherichia coli [4]; read-out: Minimum Inhibitory Concentration, Escherichia coli strain 3, B, Inoculum of 10^6 organisms): 1 mg/L (≈ 1.92 µM)
MIC (Escherichia coli [4]; read-out: Minimum Inhibitory Concentration, Escherichia coli strain 4, A, Inoculum of 10^2 organisms): 0.5 mg/L (≈ 0.962 µM)
MIC (Escherichia coli [4]; read-out: Minimum Inhibitory Concentration, Escherichia coli strain 4, B, Inoculum of 10^6 organisms): 2 mg/L (≈ 3.85 µM)
MIC (Escherichia coli [4]; read-out: Minimum Inhibitory Concentration, Escherichia coli strain 5, A, Inoculum of 10^2 organisms): 1 mg/L (≈ 1.92 µM)
MIC (Escherichia coli [4]; read-out: Minimum Inhibitory Concentration, Escherichia coli strain 5, B, Inoculum of 10^6 organisms): 2 mg/L (≈ 3.85 µM)
MIC (Escherichia coli [4]; read-out: Minimum Inhibitory Concentration, Escherichia coli strain 6, A, Inoculum of 10^2 organisms): 0.5 mg/L (≈ 0.962 µM)
MIC (Escherichia coli [4]; read-out: Minimum Inhibitory Concentration, Escherichia coli strain 6, B, Inoculum of 10^6 organisms): 2 mg/L (≈ 3.85 µM)
MIC (Escherichia coli [4]; read-out: Minimum Inhibitory Concentration, Escherichia coli strain 7, A, Inoculum of 10^2 organisms): 0.25 mg/L (≈ 0.481 µM)
MIC (Escherichia coli [4]; read-out: Minimum Inhibitory Concentration, Escherichia coli strain 7, B, Inoculum of 10^6 organisms): 2 mg/L (≈ 3.85 µM)
Tmax [5]: 15 min
half-life [5]: 33 min
Cmax ([5]; 20 mg/kg): 36 µg/mL
